Assays:
[1] = system: LINE-1 DNA methylation in T24 cells (bladder); test: Global DNA methylation, bisulfite-PCR pyrosequencing of LINE-1, T24 cells; assay type: cell-based; conditions: for LINE-1 methylation level after treatment: baseline 47.3%; for decrease in global DNA methylation (LINE-1): three days
Description: (§1) T24 cells (urinary bladder transitional cell carcinoma), MCF7 (breast adenocarcinoma), HepG2 cells (hepatocellular carcinoma), Hep3B (hepatocellular carcinoma), were obtained from American Type Culture Collection (Manassas, Va.). T24 were cultured in McCoy's 5A medium supplemented with 10% fetal bovine serum. Other cells were cultured in DMEM medium plus 10% fetal bovine serum. All cells were grown in a humidified 37° C. incubator containing 5% CO2.
(§2) Cells were seeded at 2×10^4 cells per well in a 12-well dish 24 hours prior to treatments. Cells were treated with 5-Aza-CdR (Sigma-Aldrich Chemical Company, St. Louis, Mo.), NPEOC-DAC at the indicated concentrations. 5-aza-2′-deoxyazacytidine was dissolved in distilled water and NPEOC-DAC was dissolved in dimethyl sulfoxide (DMSO). Untreated controls of the DMSO solvent alone were also included. Cells were treated at the concentrations indicated for each experiment. Cells were collected after the number of days indicated in individual experiments. For subsequent methylation, genomic DNA was extracted using standard phenol/chloroform extraction methods, as described previously (27). Each experiment was done in triplicate and standard deviations are indicated by error bars.
(§3) Bisulfite modification of genomic DNA has been described previously (28). In brief, 1.5 μg of DNA was denatured in 50 μl of 0.2 M NaOH for 10 min at 37° C. Then, 30 μl of freshly prepared 10 mM hydroquinone (Sigma) and 520 μl of 3 M sodium bisulfite (Sigma) at pH 5.0 were added and mixed. The samples were overlaid with mineral oil to prevent evaporation and incubated at 50° C. for 16 h. The bisulfite-treated DNA was isolated using Wizard DNA Clean-Up System (Promega). The DNA was eluted by 50 microliters of warm water and 5.5 microliters of 3 M NaOH were added for 5 min. The DNA was ethanol precipitated with glycogen as a carrier and resuspended in 20 microliters of water. Bisulfite treated DNA was stored at −20° C. until ready for use.
(§4) Bisulfite-converted DNA was used for pyrosequencing analysis as previously described (29). In brief, PCR product of each gene was used for individual sequencing reaction. Streptavidin-Sepharose beads (Amersham Biosciences, Uppsala, Sweden) and Vacuum Prep Tool (Biotage AB, Uppsala, Sweden) was used to purify the single-stranded biotinylated PCR product per the manufacturer's recommendation. The appropriate sequencing primer was annealed to the purified PCR product and used for a pyrosequencing reaction using the PSQ 96HS system (Biotage AB, Uppsala, Sweden). Raw data were analyzed with the allele quantification algorithm using the provided software. Pyrosequencing was done for LINE-1 elements and ID4 tumor suppressor gene.

[2] = system: ID4 DNA methylation in MCF7 cells; test: ID4 gene methylation, bisulfite-PCR pyrosequencing, MCF7 cells; assay type: cell-based; conditions: MCF; 10 μM; 3 days; baseline 39.0%
Description: as §1
as §2, with “For subsequent methylation, genomic DNA was extracted using standard phenol/chloroform extraction methods, as described previously (27). Each experiment was done in triplicate and standard deviations are indicated by error bars.” left out
(§5) Bisulfite modification of genomic DNA has been described previously (28). […] Bisulfite treated DNA was stored at −20° C. until ready for use.
(§6) Bisulfite-converted DNA was used for pyrosequencing analysis as previously described (29). […] Raw data were analyzed with the allele quantification algorithm using the provided software. […]

[3] = system: ID4 DNA methylation in T24 cells; test: ID4 gene methylation, bisulfite-PCR pyrosequencing, T24 cells; assay type: cell-based; conditions: 10 μM, 3 days, baseline 40.2%
Description: as §1
as §2, with “For subsequent methylation, genomic DNA was extracted using standard phenol/chloroform extraction methods, as described previously (27). Each experiment was done in triplicate and standard deviations are indicated by error bars.” left out
as §5, §6

[4] = system: LINE-1 DNA methylation in MCF7 cells (breast); test: Global DNA methylation, bisulfite-PCR pyrosequencing of LINE-1, MCF7 cells; assay type: cell-based; conditions: MCF; 10 μM; three days
Description: as §1
as §2, with “For subsequent methylation, genomic DNA was extracted using standard phenol/chloroform extraction methods, as described previously (27). Each experiment was done in triplicate and standard deviations are indicated by error bars.” left out
as §5, §6

[5] = system: ID4 expression in HepG2 cells; test: ID4 mRNA expression by RT-PCR in HepG2 cells; assay type: cell-based; conditions: 3 days of treatment, untreated cells no detectable ID4
Description: Genomic DNA was isolated by standard proteinase K digestion and phenol-chloroform extraction (26). Total RNA was collected and extracted from cultured cells with the RNeasy Protect minikit (Qiagen, Valencia, Calif.) according to the manufacturer's protocol.
as §2
Total RNA (5 micrograms) extracted from cultured cells was reverse transcribed with Moloney murine leukemia virus reverse transcriptase (Invitrogen, Carlsbad, Calif.) and random hexamers (NEB) in a total volume of 20 microliters. The reverse transcription was performed according to the manufacturer's recommended protocol. […]

[6] = system: epigenetically silenced GFP reporter gene in NIH3T3 cells; test: Epigenetic GFP reporter system, NIH3T3 cells with transient CES1 or CES2 transfection; assay type: cell-based; conditions: NIH3T3 GFP reporter clone
Text: It was discovered that NPEOC-DAC could inhibit DNA methylation in cells expressing CES1 but not cells expressing CES2, and that inhibition of CES by NDGA blocked the ability of NPEOC-DAC to inhibit DNA methylation. […] Transfection of CES2 had no effect on NPEOC-DAC treatment and activation of GFP. NPEOC-DAC activation is dependent on CES1 expression.

[7] = system: LINE-1 DNA methylation in Hep3B cells (liver); test: Global DNA methylation, bisulfite-PCR pyrosequencing of LINE-1, Hep3B cells; assay type: cell-based; conditions: 10 μM, three days
Description: as §1
as §2, with “For subsequent methylation, genomic DNA was extracted using standard phenol/chloroform extraction methods, as described previously (27). Each experiment was done in triplicate and standard deviations are indicated by error bars.” left out
as §5, §6

[8] = system: ID4 DNA methylation in HepG2 cells; test: ID4 gene methylation, bisulfite-PCR pyrosequencing, HepG2 cells; assay type: cell-based; conditions: 10 μM, 3 days, baseline 94.7%
Description: as §1
as §2, with “For subsequent methylation, genomic DNA was extracted using standard phenol/chloroform extraction methods, as described previously (27). Each experiment was done in triplicate and standard deviations are indicated by error bars.” left out
as §5, §6

[9] = system: HepG2 cells; test: Cell toxicity during drug treatment of HepG2 cells; assay type: cell-based; conditions: for toxicity: 10 uM continual treatment, time course
Description: as §2

[10] = system: LINE-1 DNA methylation in HepG2 cells (liver); test: Global DNA methylation, bisulfite-PCR pyrosequencing of LINE-1, HepG2 cells; assay type: cell-based; conditions: for LINE-1 methylation level after treatment / LINE-1 methylation level, time course / decrease in global DNA methylation (LINE-1): HepG2; for LINE-1 methylation level after treatment: 3 days, untreated baseline 53.9%; for LINE-1 methylation level, time course: 10 μM continual treatment, baseline 53.9%; for decrease in global DNA methylation (LINE-1): three days
Description: as §1, §2, §3, §4

[11] = system: ID4 DNA methylation in Hep3B cells; test: ID4 gene methylation, bisulfite-PCR pyrosequencing, Hep3B cells; assay type: cell-based; conditions: 10 μM, 3 days, baseline 95.4%
Description: as §1
as §2, with “For subsequent methylation, genomic DNA was extracted using standard phenol/chloroform extraction methods, as described previously (27). Each experiment was done in triplicate and standard deviations are indicated by error bars.” left out
as §5, §6

[12] = system: LINE-1 DNA methylation in HepG2 cells (carboxylesterase dependence); test: Inhibition of carboxylesterase by NDGA: LINE-1 methylation in HepG2 cells; assay type: cell-based
Text: as §4
For dose effects of nordihydroguaiaretic acid (NDGA) on CES inhibition, HepG2 cells were grown in 6-well plates. […] Cells were harvested on day 4 by Tripsin-EDTA.

[13] = rapid deamination by plasma cytidine deaminase; cited from earlier work
[14] = Solubility in water; assay type: physicochemical; conditions: consequently dissolved in DMSO

Compound	decrease in global DNA methylation (LINE-1) ([1]; 10 μM)	decrease in DNA methylation of ID4 [2]	decrease in DNA methylation of ID4 [3]	decrease in global DNA methylation (LINE-1) [4]	ID4 mRNA expression (RT-PCR) [5]	reactivation of GFP ([6]; no CES transfection)	decrease in global DNA methylation (LINE-1) [7]	decrease in DNA methylation of ID4 [8]	toxicity [9]	LINE-1 methylation level after treatment ([10]; 0.5 μM)	LINE-1 methylation level, time course ([10]; day 1)	LINE-1 methylation level, time course ([10]; day 7)	decrease in global DNA methylation (LINE-1) ([10]; 10 μM)	decrease in DNA methylation of ID4 [11]	other results
Nc1ncn([C@H]2C[C@H](O)[C@@H](CO)O2)c(=O)n1 [DAC, 5-aza-2′-deoxycytidine, reference compound]	57.1%	19.7%	38.1%	11.0%	clear expression of ID4 could be detected	could be reactivated	12.3%	2.6%	significant toxicity	46.0%	36.5%	returned to baseline	5.6%	1.1%	LINE-1 methylation level after treatment ([1]; 0.5 uM, 3 days): 26.8%; LINE-1 methylation level after treatment ([1]; 1 uM, 3 days): 21.0%; LINE-1 methylation level after treatment ([1]; 5 uM, 3 days): 35.7%; cell toxicity ([9]; higher concentrations (5 μM), 3 days): significant cell toxicity; LINE-1 methylation level after treatment ([10]; 1 μM): 47.0%; LINE-1 methylation level after treatment ([10]; 5 μM): 56.9%
CC(Cc1ccc(O)c(O)c1)C(C)Cc1ccc(O)c(O)c1 (centres unmarked) [NDGA, nordihydroguaiaretic acid, reference compound]	–	–	–	–	–	–	–	–	–	–	–	–	–	–	effect on DNA methylation of HepG2 cells ([12]; 100 μM, alone): no effect
Nc1ncn([C@@H]2O[C@H](CO)[C@@H](O)[C@H]2O)c(=O)n1 [5-azacytidine]	–	–	–	–	–	–	–	–	–	–	–	–	–	–	in vivo plasma half-life [13]: 41 min
O=C(Nc1ncn([C@H]2C[C@H](O)[C@@H](CO)O2)c(=O)n1)OCCc1ccc([N+](=O)[O-])cc1 [NPEOC-DAC, 2′-deoxy-N4-[2-(4-nitrophenyl)ethoxycarbonyl]-5-azacytidine]	0.9%	10.0%	8.2%	5.1%	increased expression of ID4	without reactivation of GFP	17.4%	24.7%	less toxicity than observed with DAC	no detectable effect	did not begin to decrease LINE-1 methylation until day 3	38.9%	22.1%	26.2%	decrease in DNA methylation (LINE-1), time course ([1]; 10 μM, prolonged treatment (to day 14)): did not show any decrease; change in DNA methylation (LINE-1) ([1]; 3 days, up to the highest concentrations): no change in DNA methylation; reactivation of GFP ([6]; transfection of CES2): no effect; reactivation of GFP ([6]; transient transfection of human CES1 gene): reactivation of GFP; LINE-1 methylation decreased by ([12]; 10 μM NPEOC-DAC alone): 49.7%; LINE-1 methylation level after treatment ([12]; 10 μM NPEOC-DAC alone): 24.5%; LINE-1 methylation change in combination with NDGA ([12]; in combination with NDGA (100 μM)): did not decrease; solubility in water [14]: very low solubility in water; delay in the effects compared to DAC [10]: 3 days; fold less efficient at inhibiting DNA methylation compared to DAC [10]: 23 fold; LINE-1 methylation level, time course ([10]; day 3): 43.7%; LINE-1 methylation level, time course ([10]; day 14): 30.9%; LINE-1 methylation level after treatment ([10]; 10 μM, concentration series): 42.0%; LINE-1 methylation level after treatment ([10]; 100 μM): 28.7%
